# Test results reported in the supplement of paper PMC13380429.
# How the values were obtained:
# Conditions in all cases: 72 h
# [1] = tested on: HepG2; assay: relative viability EC50 (midpoint between 100% and the lowest measured viability); higher = less toxic
# [2] = tested on: Vero E6; assay: as above
# [3] = tested on: U2OS; assay: as above
# [4] = tested on: Caco-2; assay: as above
# [5] = tested on: Calu-3; assay: as above
# [6] = tested on: HepG2; assay: drug sensitivity score (DSS) for viability; higher = more toxic; extreme values may be limits of the assay
# [7] = tested on: Vero E6; assay: as above
# [8] = tested on: U2OS; assay: as above
# [9] = tested on: Caco-2; assay: as above
# [10] = tested on: Calu-3; assay: as above
# [11] = tested on: HepG2; assay: cell viability relative to DMSO; higher = less toxic
# [12] = tested on: Vero E6; assay: as above
# [13] = tested on: U2OS; assay: as above
# [14] = tested on: Caco-2; assay: as above
# [15] = tested on: Calu-3; assay: as above
Compound,relative viability EC50 [1] [µM],relative viability EC50 [2] [µM],relative viability EC50 [3] [µM],relative viability EC50 [4] [µM],relative viability EC50 [5] [µM],drug sensitivity score [6],drug sensitivity score [7],drug sensitivity score [8],drug sensitivity score [9],drug sensitivity score [10],cell viability ([11]; 1 nM) [%],cell viability ([11]; 10 nM) [%],cell viability ([11]; 100 nM) [%],cell viability ([11]; 1000 nM) [%],cell viability ([11]; 10000 nM) [%],cell viability ([12]; 1 nM) [%],cell viability ([12]; 10 nM) [%],cell viability ([12]; 100 nM) [%],cell viability ([12]; 1000 nM) [%],cell viability ([12]; 10000 nM) [%],cell viability ([13]; 1 nM) [%],cell viability ([13]; 10 nM) [%],cell viability ([13]; 100 nM) [%],cell viability ([13]; 1000 nM) [%],cell viability ([13]; 10000 nM) [%],cell viability ([14]; 1 nM) [%],cell viability ([14]; 10 nM) [%],cell viability ([14]; 100 nM) [%],cell viability ([14]; 1000 nM) [%],cell viability ([14]; 10000 nM) [%],cell viability ([15]; 1 nM) [%],cell viability ([15]; 10 nM) [%],cell viability ([15]; 100 nM) [%],cell viability ([15]; 1000 nM) [%],cell viability ([15]; 10000 nM) [%]
N=C(N)c1ccc(N2CCN(C3CCN(CC(=O)O)CC3)CC2)cc1,> 10,> 10,> 10,> 10,> 10,0,0,0,0,0,111,96.8,101,107,102,97.9,98.6,99.2,93.5,96.9,97.6,103,95.6,96.9,102,83,97.2,89.2,92.5,104,91.4,96.4,90,92,100
CCCCOc1nc(N)c2c(n1)N(Cc1cccc(CN3CCCC3)c1)CC(=O)N2 [GS-9620],> 10,> 10,> 10,> 10,> 10,0,0,0,0,0,105,102,95.9,100,99.1,108,96.3,101,103,98.8,100,96.5,96.8,95.6,101,96.3,104,91.4,98.5,98.3,101,95.1,111,96.1,104
O=C1O[C@H]([C@@H](O)CO)C([O-])=C1O.[Na+] [sodium-ascorbate],> 10,> 10,> 10,> 10,> 10,0,0,0,0,0,96.8,104,92.1,110,111,97.5,107,97.2,100,106,97.9,89.9,101,97.7,103,91.7,93.1,98.9,95.2,102,100,102,97,98.5,102
COc1cc(C)c(/C=C/C(C)=C/C=C/C(C)=C/C(=O)O)c(C)c1C [acitretin],> 10,> 10,> 10,> 10,> 10,0,0,0,0,3.8,101,96.7,98.7,106,105,103,99.6,99.6,99.3,102,100,101,94.4,93.7,92.1,89.3,93.2,99.3,89.4,91.4,97.5,94.8,83.9,83.5,75.3
